Target: Amyloid-beta precursor protein (Homo sapiens, UniProt P05067)
Assay: Displacement of [3H]-105 from amyloid-beta (unknown origin) in human brain homogenate assessed as inhibition constant incubated for 90 mins by radioligand binding assay
Format: tissue-based

Sequence of Amyloid-beta precursor protein (P05067 whole entry): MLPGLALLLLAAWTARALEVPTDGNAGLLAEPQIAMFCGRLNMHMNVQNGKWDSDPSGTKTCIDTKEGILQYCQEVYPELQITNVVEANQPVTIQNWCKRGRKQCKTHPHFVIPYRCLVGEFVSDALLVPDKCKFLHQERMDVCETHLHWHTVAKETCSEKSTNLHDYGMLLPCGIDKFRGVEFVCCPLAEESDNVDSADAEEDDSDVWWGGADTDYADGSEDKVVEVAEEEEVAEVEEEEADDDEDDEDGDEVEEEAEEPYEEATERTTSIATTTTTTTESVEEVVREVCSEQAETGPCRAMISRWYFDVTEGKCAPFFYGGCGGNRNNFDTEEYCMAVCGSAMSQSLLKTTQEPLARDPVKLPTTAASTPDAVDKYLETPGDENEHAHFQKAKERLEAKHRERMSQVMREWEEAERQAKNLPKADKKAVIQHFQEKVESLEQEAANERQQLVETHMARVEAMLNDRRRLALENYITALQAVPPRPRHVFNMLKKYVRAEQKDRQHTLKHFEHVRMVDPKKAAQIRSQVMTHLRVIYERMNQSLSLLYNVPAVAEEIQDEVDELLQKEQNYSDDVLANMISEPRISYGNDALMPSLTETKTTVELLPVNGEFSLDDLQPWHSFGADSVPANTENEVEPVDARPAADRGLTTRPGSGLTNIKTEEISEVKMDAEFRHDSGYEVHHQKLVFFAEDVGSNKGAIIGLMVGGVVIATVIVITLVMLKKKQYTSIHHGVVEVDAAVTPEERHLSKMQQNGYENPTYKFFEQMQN

Row | Compound | Ki [µM]
1 | C[C@H]1CN(c2ccc(F)cn2)CCN1c1ncc(NC(=O)c2ccc(N3CC[C@@H](F)C3)nc2)cn1 | 12
2 | Cc1cocc1-c1ccc(C(=O)Nc2cnc(N3CCN(c4ccccn4)C[C@@H]3C)nc2)cn1 | 10.8
3 | C[C@H]1CN(c2ccccn2)CCN1c1ncc(NC(=O)c2ccc(-n3cccn3)nc2)cn1 | 10.8
4 | C[C@H]1CN(c2cc([N+](=O)[O-])ccn2)CCN1c1ncc(NC(=O)c2ccc(N3CC(F)(F)C3)nc2)cn1 | 12
5 | COC[C@H]1CN(c2ccccn2)CCN1c1ncc(NC(=O)c2ccc(-n3cccn3)nc2)cn1 | 12
6 | C[C@H]1CN(c2ccc(F)cn2)CCN1c1ncc(NC(=O)c2ccc(N3CCC3)nc2)cn1 | 12
7 | Cc1ccc(N2C[C@@H](C)N(c3ncc(NC(=O)c4ccc(-c5cncc(F)c5)nc4)cn3)[C@@H](C)C2)nc1 | 12
8 | C[C@H]1CN(c2ccc(F)cn2)CCN1c1ncc(NC(=O)c2ccc(N3CC(F)C3)nc2)cn1 | 12

— ChEMBL document CHEMBL6103607, “Novel Heterocyclic Piperazine Amide Derivatives as Alpha-synuclein PET Ligands for Diagnosis of Parkinson's Disease” (ACS Med Chem Lett, 2025)
